Results on 1 sequence are retold here after article PMC12998938, “Neutrophil store-operated Ca^2+ entry: A correctable biomarker of cystic fibrosis lung disease progression” (Journal of cystic fibrosis : official journal of the …, 2025).

Experiment [1] has as its system Orai3. Briefly: SOCE in triple knockout HEK293T cells transfected with Orai3. It counts as cell-based. The source says:
(§1) We hypothesized that inhibiting SOCE in CF neutrophils may reduce the secretion of neutrophil elastase and other proteins associated with CF lung disease. To validate ELD607’s specificity for Orai1 over Orai2 and Orai3, we first evaluated ELD607 function in HEK293T cells that had Orai1, Orai2 and Orai3 stably knocked out. […] Next we evaluated ELD607’s ability to inhibit SOCE in non-CF and CF neutrophils.
(§2) Supplemental figure 3. […] Dose responses of thapsigargin-induced changes in cytoplasmic Ca^2+ concentrations. These studies were performed in HEK293T where Orai1, Orai2 and Orai3 had been stably knocked down (triple knockout cells, TKO) or in TKO cells that were transiently transfected with Orai1, Orai2 or Orai3 as indicated. All data are from 7-9 replicates per data point from 3 separate experiments.

The subject of experiment [2] is SOCE/Orai1 in CF peripheral blood neutrophils. As to the kind of experiment: Fluo-4 Ca2+ assay, global thapsigargin-stimulated Ca2+ response (SOCE), CF neutrophils. Type of experiment: cell-based, human. The procedure:
(§3) Neutrophils were immediately isolated by negative selection from deidentified blood samples using an EasySep human neutrophil isolation kit (Stem Cell Technologies) as described. Cytosolic Ca^2+ was measured using Fluo-4 as described. Protein lysate from isolated blood neutrophils was characterized by liquid chromatography with tandem mass spectrometry (LC-MS/MS) as described. Degranulation products in media were quantified by Luminex assay using a custom Bio-Plex human kit (BioRad) per the manufacturer’s protocol […]. Detailed methods for all experiments and measurements are provided in an online data supplement.
(§4) Isolated neutrophils were incubated with peptide or vehicle control for 3 h. For the final hour of treatment, cells were loaded with Fluo-4 direct (Thermofisher) for 45 min at 37°C and 15 min at room temperature as described.
(§5) Fluo-4 Ca^2+ assays. Isolated neutrophils were incubated with peptide or vehicle control for 3 h. For the final hour of treatment, cells were loaded with Fluo-4 direct (Thermofisher) for 45 min at 37°C and 15 min at room temperature. For global Ca^2+ measurements, baseline fluorescent readings were made for 2 min (1 read every 30 s) using a Tecan Infinite M1000 plate reader (ex 494 em 516 nm, bandwidth 5 nm) before thapsigargin (Sigma-Aldrich) was added and the change in emission was recorded for 10 min (1 read every 30 s). To isolate phases of store operated Ca^2+ entry, cells underwent 3 rounds of centrifugation and resuspension in Ca^2+-free Ringer’s solution to remove extracellular Ca^2+. Baseline fluo-4 fluorescence was read for 2 min before cell were stimulated with thapsigargin (Tocris). Reads continued for ~5 min before 1.2 mM Ca^2+ was added to the extracellular solution and SOCE was measured for ~10 mins. For analysis, all fluo-4 fluorescence reads are normalized to baseline.

The test system of experiment [3] is Orai1. As to the kind of experiment: SOCE in triple knockout HEK293T cells transfected with Orai1. Type of experiment: cell-based. As to conditions: TKO + Orai1, vs wild-type HEK293T; thapsigargin; dose response; 7-9 replicates; Orai1, 2, 3 plots differ p<0.001.
From the text: as §1, §2

Experiment [4] has as its system SOCE/Orai1 in non-CF peripheral blood neutrophils. Briefly: Fluo-4 Ca2+ assay, global thapsigargin-stimulated Ca2+ response (SOCE), non-CF neutrophils. As to conditions: 10 μM peptide, 3 h pre-treatment, 1 μM thapsigargin, N = 10 donors. It counts as cell-based, human. The procedure: as §3, §4, §5
In experiment [5] the test system is bacterial lung infections in mice. As to conditions: cited from earlier work. The text has this: In ... || CF neutrophils with elevated SOCE undergo more degranulation, leading to greater release of proteases/pro-inflammatory mediators. Therefore, increased SOCE may be a driving force for declining CF lung function. However, there is much to do to fully understand this phenomenon, and our data identify an association, not a causality. […] To date, several blood biomarkers have been identified as predictors of CF lung disease. Most biomarkers ( ...

For experiment [6], the system named is non-CF neutrophils. As to the kind of experiment: Neutrophil degranulation multiplex assay, non-CF neutrophils. It counts as cell-based, human. As to conditions: 3 h, 1 μM thapsigargin 30 min, vs vehicle, paired t-test. The method, then:
as §3
Multiple neutrophil functions, including neutrophil degranulation, are Ca^2+ dependent. Neutrophil degranulation results in an increase in several proteases in the lung, including neutrophil elastase, a key driver of CF lung damage. Accordingly, we investigated the impact of ELD607 on neutrophil degranulation as a marker of Ca^2+-dependent neutrophilic function. We used a multiplex assay to quantify key granule proteins released into media after a 3 h pretreatment with 10 μM ELD607 or vehicle control followed by a 30 min stimulation with 1 μM thapsigargin. Levels of myeloperoxidase (MPO; primary granules), lactoferrin (specific granules) and matrix metalloproteinase-9 (MMP9; tertiary granules) release were similar between non-CF and CF neutrophils (Fig. 4A–C).
Fig. 4. ELD607 inhibits degranulation in non-CF and CF neutrophils. Neutrophil degranulation (A-C) was assayed by measuring the concentration of representative constituents of (A) primary granules, MPO (non-CF, n = 9; CF, n = 13); (B) secondary granules, lactoferrin (non-CF, n = 12; CF, n = 17) and (C) tertiary granules, MMP-9 (non-CF, n = 9; CF, n = 12). […]
Multiplex assay. […] Supernatant was collected and analyzed for a panel of neutrophil granule proteins (MPO, lactoferrin, MMP9) using a Bio-Plex human kit (BioRad) per the manufacturer’s protocol. Plates were then analyzed using a Bio-Plex MAGPIX System (BioRad).

Experiment [7] concerns Orai1. As to conditions: cartoon legend; reference not given; cited from earlier work. The source says:
Fig. 6. Cartoon of SOCE in neutrophils in the absence (left) and presence (right) of ELD607. Left, activation of Gq-linked GPCRs by appropriate agonists (e.g. ATP) leads to formation of inositol triphosphate (IP3) and ER store Ca^2+ depletion. This in turn causes STIM1 to rapidly aggregate at ER-plasma membrane junctions where it causes Orai1 to activate and aggregate to provide a second, amplifying wave of Ca^2+ which triggers neutrophil degranulation, as well as activating other Ca^2+-dependent processes (not shown). Right, ELD607 binds to Orai1, causing it to be ubiquitinated, internalized ...

Where [8] appears, read: murine models of bacterial lung infections, ref [21].

Consider “VHDIVNMLIRG [ELD607, size-optimized SPLUNC1/α6 peptidomimetic]”, for which, in experiment [1] (TKO + Orai3, thapsigargin, dose response, 7-9 replicates), the “sensitivity of SOCE to ELD607” value is reported as “relatively insensitive”. The “specificity for Orai1: effect on Orai3” value in experiment [1] (discussion summary of supplemental figure 3) was “little effect on Orai2 and Orai3”. Moreover, the “inhibition of SOCE (global Ca2+ response)” value in experiment [2] (CF, 10 μM peptide, 3 h pre-treatment, 1 μM thapsigargin, Fluo-4, N = 21 donors) is reported as “significantly inhibited SOCE regardless of genotype”. In addition, in experiment [2] (neutrophils (discussion of Fig. 3)), the “completeness of inhibition of Ca2+ signaling” value is on record as “not 100% inhibited”. The “sensitivity of SOCE to ELD607” value in experiment [3] is “restored the sensitivity to ELD607 seen in wild-type HEK293T cells”. Besides, the “inhibition of SOCE (global Ca2+ response)” value in experiment [4] is on record as “significantly inhibited SOCE regardless of genotype”. In addition, the “neutrophilia caused by bacterial infections” value in experiment [5] (inhaled ELD607, ref [53]) is recorded as “abolished neutrophilia”. In addition, in experiment [5] (setting [8]), the “neutrophilia and lung damage” value is “reduced neutrophilia and lung damage”; the survival entry was “increased survival”. Moreover, the “beneficial effects after depletion of alveolar macrophages” value in experiment [5] (wild-type mice, alveolar macrophages depleted, ref [21]) is on record as “abolished the beneficial effects of ELD607”. Moreover, in experiment [6] (n = 9, 10 μM), the “MMP9 release (tertiary granules)” value is “significantly reduced” and the “MPO release (primary granules)” value is given as “significantly reduced”. In experiment [6] (n = 12, 10 μM), the “lactoferrin release (specific/secondary granules)” value is “significantly reduced”. The “effect on Orai1” value in experiment [7] was “binds to Orai1, causing it to be ubiquitinated, internalized and degraded”.
